From ChEMBL document CHEMBL1201862, “PubChem BioAssay data set” (2004) come the findings set out here.

Some test systems named below: RXF 393; SK-MEL-28; SW-620; MOLT-4; ACHN; UACC-62; SN12C; IGROV-1; HCC 2998; CAKI-1; SF-539; SF-268; HOP-62; TK-10; UACC-257; HOP-92; RPMI-8226; 786-0.
Experiment in all cases: NCI-60 cell line screen, 48 h

“And” between values parts separate entries of the source, which are not always exact repeats. Equal values may be shown once.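 Five compound concentrations were applied to cells in 96-well plates for 48 hours; endpoints were derived by simple linear interpolation of the resulting dose-response curve. GI50: concentration for 50% inhibition of growth.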 The source made the active and inactive calls. Rule as the data show it: active = GI50 up to about 1.1 µM and inactive = higher.

As for `O=C1CCC2(c3ccccc3)Nc3cc(Cl)ccc3N12` (stereo unspecified), the GI50 was 28.4 µM (inactive) in the experiment on RXF 393; 36.2 µM (inactive) with SK-MEL-28; 41.5 µM (inactive) in the experiment with SW-620; 21.6 µM (inactive) with MOLT-4; 26.9 µM (inactive) with ACHN; 19 µM (inactive) with UACC-62. For the same compound, the GI50 is 35.1 µM (inactive) in the experiment with SN12C; 41.2 µM (inactive) in the experiment on IGROV-1; 42.1 µM (inactive) in the experiment on HCC 2998; 21 µM (inactive) in the experiment on CAKI-1; 41.3 µM (inactive) with SF-539; 40.8 µM (inactive) in the experiment on SF-268. Further, the GI50 in the experiment on HOP-62 was 25.4 µM (inactive); in the experiment with TK-10, 39.2 µM (inactive); in the experiment with UACC-257, 24 µM (inactive); in the experiment with HOP-92 it was 13.7 µM (inactive); in the experiment on RPMI-8226, 22 µM (inactive); in the experiment on 786-0, 35.6 µM (inactive).

As for `O=C(N/C(=C\c1c(O)ccc2ccccc12)c1nc2ccccc2[nH]1)c1ccccc1`, the GI50 in the experiment on RXF 393 was 22.1 µM (inactive); in the experiment on SK-MEL-28, > 100 µM (inactive); with SW-620, > 100 µM (inactive); in the experiment with MOLT-4, > 100 µM (inactive); in the experiment with ACHN, > 100 µM (inactive); with UACC-62, > 100 µM (inactive). The GI50 in the experiment with SN12C was 92.7 µM (inactive); with IGROV-1, > 100 µM (inactive); in the experiment with HCC 2998 it was > 100 µM (inactive); in the experiment with CAKI-1 it was > 100 µM (inactive); in the experiment with SF-539, 29.1 µM (inactive); in the experiment with SF-268 it was 64.3 µM (inactive). The GI50 in the experiment on HOP-62 was 25.9 µM (inactive); with TK-10, > 100 µM (inactive); with UACC-257, > 100 µM (inactive); with HOP-92 it was > 100 µM (inactive); in the experiment on RPMI-8226, > 100 µM (inactive); in the experiment on 786-0, 39.8 µM (inactive).

Consider `COc1ccccc1/C=C(/C)[N+](=O)[O-]`, for which the GI50 is 2.46 µM (inactive) and 2.19 µM (inactive) with SK-MEL-28; 2.43 µM (inactive) and 2.02 µM (inactive) with SW-620; 269 nM (active) and 255 nM (active) in the experiment on MOLT-4; 2.17 µM (inactive) and 2.44 µM (inactive) with ACHN; 1.89 µM (inactive) and 1.58 µM (inactive) in the experiment with UACC-62; 2.24 µM (inactive) and 1.98 µM (inactive) in the experiment on SN12C. The GI50 in the experiment with IGROV-1 was 2.17 µM (inactive) and 1.6 µM (inactive); with HCC 2998, 1.48 µM (inactive) and 3.94 µM (inactive); with SF-539 it was 1.77 µM (inactive) and 2.28 µM (inactive); with HOP-62, 1.81 µM (inactive) and 3.37 µM (inactive); in the experiment on TK-10, 2.06 µM (inactive) and 4.06 µM (inactive); in the experiment on UACC-257, 1.74 µM (inactive) and 1.77 µM (inactive). In addition, the GI50 in the experiment with HOP-92 was 2.21 µM (inactive); in the experiment with 786-0, 1.37 µM (inactive) and 1.13 µM (inactive).

Take `CCn1c2c(c3ccccc31)C(c1ccccc1)CC1C(=O)N(c3ccccc3)C(=O)C21` (stereo unspecified): the GI50 in the experiment with SK-MEL-28 was 41.6 µM (inactive); in the experiment on SW-620, > 100 µM (inactive); in the experiment on MOLT-4, 91.2 µM (inactive); in the experiment with ACHN, 57.5 µM (inactive); with UACC-62 it was 38.9 µM (inactive); in the experiment with SN12C, 67.1 µM (inactive). Further, the GI50 with IGROV-1 is 33 µM (inactive); in the experiment with HCC 2998 it was 59 µM (inactive); in the experiment on CAKI-1, 35.2 µM (inactive); in the experiment with SF-539, 35.4 µM (inactive); in the experiment on SF-268, > 100 µM (inactive); in the experiment on HOP-62, 87.1 µM (inactive). Further, the GI50 is > 100 µM (inactive) in the experiment on TK-10, > 100 µM (inactive) with UACC-257, 26.2 µM (inactive) in the experiment on HOP-92 and 21 µM (inactive) in the experiment with 786-0.

`C/C(CC(=O)Nc1cccc(Cl)c1C)=N\N=C(N)N`: the GI50 in the experiment on RXF 393, in the experiment with SK-MEL-28, in the experiment with MOLT-4, in the experiment with ACHN, in the experiment with UACC-62 and in the experiment on SN12C was > 100 µM (inactive) in each case. Besides, the GI50 with IGROV-1, with HCC 2998, in the experiment on CAKI-1, with SF-539, with SF-268 and with HOP-62 was > 100 µM (inactive) in each case. Also, the GI50 in the experiment on TK-10, with UACC-257, with HOP-92, with RPMI-8226 and in the experiment on 786-0 was > 100 µM (inactive) throughout.

On to `CN(C(=O)C12C3C4C1C1C2C3C41C#N)C(C)(C)C` (stereo unspecified), for which the GI50 in the experiment with SK-MEL-28, with SW-620, in the experiment on MOLT-4, with ACHN, in the experiment on UACC-62 and with SN12C was > 100 µM (inactive) throughout. The GI50 in the experiment with IGROV-1, in the experiment on HCC 2998, with CAKI-1, with SF-539, with SF-268 and with HOP-62 was > 100 µM (inactive) in each case. The GI50 in the experiment on TK-10, in the experiment on UACC-257, in the experiment with RPMI-8226 and in the experiment with 786-0 was > 100 µM (inactive) each time.

`CC(C)(C)c1cc(CCCCCCCC2(CCCCCCCc3cc(C(C)(C)C)cc(C(C)(C)C)c3)OC(COCCOCCCCCC#N)C(COCCOCCCCCC#N)O2)cc(C(C)(C)C)c1` (stereo unspecified): the GI50 with RXF 393 was 3.78 µM (inactive); in the experiment on SK-MEL-28, > 100 µM (inactive); in the experiment with SW-620, > 100 µM (inactive); in the experiment on ACHN, > 100 µM (inactive); in the experiment on UACC-62, > 100 µM (inactive); with SN12C, > 100 µM (inactive). For the same compound, the GI50 with IGROV-1, in the experiment with HCC 2998, in the experiment with CAKI-1, in the experiment with SF-268, with HOP-62 and in the experiment with TK-10 was > 100 µM (inactive) each time. Also, the GI50 in the experiment on UACC-257, in the experiment on HOP-92 and in the experiment on 786-0 was > 100 µM (inactive) in each case.

On to `COc1cc(OC)c2c(=O)cc(-c3ccc(OC)c(OC)c3OC)oc2c1`, for which the GI50 was 57.5 µM (inactive) in the experiment on RXF 393; > 100 µM (inactive) in the experiment on SK-MEL-28; > 100 µM (inactive) with SW-620; 83.6 µM (inactive) in the experiment with ACHN; > 100 µM (inactive) in the experiment with UACC-62; > 100 µM (inactive) in the experiment with SN12C. Further, the GI50 in the experiment on IGROV-1 was > 100 µM (inactive); in the experiment with HCC 2998 it was > 100 µM (inactive); with CAKI-1, > 100 µM (inactive); in the experiment on SF-539 it was 31.9 µM (inactive); in the experiment on SF-268 it was 48.2 µM (inactive); in the experiment with HOP-62, 27.7 µM (inactive). The GI50 is > 100 µM (inactive) in the experiment with TK-10; > 100 µM (inactive) in the experiment with UACC-257; 37 µM (inactive) in the experiment on HOP-92; > 100 µM (inactive) in the experiment on RPMI-8226; 38.5 µM (inactive) with 786-0.
